Test results from patent publication US10131652B2, “Pyrimidinyloxy benzene derivatives as herbicides” (E. I. DU PONT DE NEMOURS AND COMPANY, priority 2014, dated 2018).

Experiments:
Assay type in all cases: in vivo
[1] = system: barnyardgrass (Echinochloa crus-galli); experiment: Test C flooded paddy test plant response; conditions: Flood, 250 g ai/ha; scale of 0 to 100 where 0 is no effect and 100 is complete control; 13 to 15 days
Outline: (§1)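 Plants grown to the 2-leaf stage; pots flooded to 3 cm above soil, test compounds applied directly to paddy water, depth maintained throughout. Greenhouse for 13 to 15 days, then visual rating versus controls on a 0–100 scale (0 no effect, 100 complete control).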

[2] = system: small-flower umbrella sedge (Cyperus difformis); experiment: Test C flooded paddy test plant response; conditions: Flood, 250 g ai/ha; scale of 0 to 100 where 0 is no effect and 100 is complete control; 13 to 15 days
Outline: as §1

[3] = system: ducksalad (Heteranthera limosa); experiment: Test C flooded paddy test plant response; conditions: Flood, 250 g ai/ha; scale of 0 to 100 where 0 is no effect and 100 is complete control; 13 to 15 days
Outline: as §1

[4] = system: rice (Oryza sativa); experiment: Test C flooded paddy test plant response; conditions: Flood, 250 g ai/ha; scale of 0 to 100 where 0 is no effect and 100 is complete control; 13 to 15 days
Outline: as §1

[5] = system: blackgrass (Alopecurus myosuroides); experiment: Test B postemergence plant response
Outline: (§2)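 Visual injury ratings, 0 = no effect to 100 = complete control, versus untreated controls approximately 10 days after postemergence spraying in greenhouse. Plants were at one- to two-leaf stage, 2 to 10 cm tall, in loam soil/sand blend; a dash denotes no result.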

[6] = system: galium (catchweed bedstraw, Galium aparine); experiment: Test B postemergence plant response
Outline: as §2

[7] = system: barnyardgrass (Echinochloa crus-galli); experiment: Test B pre-/postemergence plant response
Outline: (§3)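 Visual injury scores on a 0–100 scale (100 = complete control) relative to untreated plants, taken about 10 days post-treatment in greenhouse. Treatments were a directed preemergence soil spray and a postemergence spray at one- to two-leaf stage, using surfactant-containing solvent formulation.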

[8] = system: ragweed (common ragweed, Ambrosia elatior); experiment: Test B pre-/postemergence plant response
Outline: as §3

[9] = system: corn (Zea mays); experiment: Test B pre-/postemergence plant response
Outline: as §3

[10] = system: kochia (Kochia scoparia); experiment: Test B pre-/postemergence plant response
Outline: as §3

[11] = system: wheat (Triticum aestivum); experiment: Test B pre-/postemergence plant response
Outline: as §3

[12] = system: giant foxtail (Setaria faberii); experiment: Test B pre-/postemergence plant response
Outline: as §3

[13] = system: pigweed (Amaranthus retroflexus); experiment: Test B pre-/postemergence plant response
Outline: as §3

[14] = system: Italian ryegrass (Lolium multiflorum); experiment: Test B pre-/postemergence plant response
Outline: as §3

[15] = 125 g ai/ha, postemergence, 0 to 100 scale, 0 no effect, 100 complete control
[16] = 500 g ai/ha, postemergence, 0 to 100 scale, 0 no effect, 100 complete control
[17] = Preemergence, 125 g ai/ha, 0 to 100 scale (0 no effect, 100 complete control)
[18] = Preemergence, 500 g ai/ha, 0 to 100 scale where 0 is no effect and 100 is complete control
[19] = Postemergence, 31 g ai/ha, 0 to 100 scale (0 no effect, 100 complete control)
[20] = 31 g ai/ha, Preemergence, 0 to 100 scale where 0 is no effect and 100 is complete control

SMILES	Barnyardgrass plant response rating [1]	Sedge, Umbrella plant response rating [2]	Ducksalad plant response rating [3]	Rice plant response rating [4]	Plant response rating, Blackgrass [5, 15]	Plant response rating, Galium [6, 15]	Plant response rating, Barnyardgrass [7, 15]	Barnyardgrass plant response rating [7, 17]	Plant response rating, Ragweed [8, 15]	Ragweed plant response rating [8, 17]	Plant response rating, Corn [9, 15]	Plant response rating, Kochia [10, 15]	Kochia plant response rating [10, 17]	Plant response rating, Wheat [11, 15]	Plant response rating, Foxtail, Giant [12, 15]	Foxtail, Giant plant response rating [12, 17]	Plant response rating, Pigweed [13, 15]	Pigweed plant response rating [13, 17]	Plant response rating, Ryegrass, Italian [14, 15]	Ryegrass, Italian plant response rating [14, 17]	other results
CC(=O)c1cc(-c2ccccc2Oc2ncc(Cl)cn2)no1 [Compound 215]	0	0	0	0	0	20	20	40	0	0	20	0	0	0	20	20	20	20	0	0	Plant response rating, Blackgrass [5, 16]: 40; Plant response rating, Galium [6, 16]: 70; Plant response rating, Barnyardgrass [7, 16]: 90; Plant response rating, Barnyardgrass [7, 18]: 90; Plant response rating, Ragweed [8, 16]: 20; Plant response rating, Ragweed [8, 18]: 0; Plant response rating, Corn [9, 16]: 40; Plant response rating, Kochia [10, 16]: 10; Plant response rating, Kochia [10, 18]: 0; Plant response rating, Wheat [11, 16]: 20; Plant response rating, Foxtail, Giant [12, 16]: 80; Plant response rating, Foxtail, Giant [12, 18]: 90; Plant response rating, Pigweed [13, 16]: 100; Plant response rating, Pigweed [13, 18]: 90; Plant response rating, Ryegrass, Italian [14, 16]: 50; Plant response rating, Ryegrass, Italian [14, 18]: 0
Cc1csc(-c2ccccc2Oc2ncc(Cl)cn2)c1 [Compound 216]	0	0	0	0	10	50	10	10	0	0	10	20	0	0	0	0	30	0	0	0	Plant response rating, Blackgrass [5, 19]: 0; Plant response rating, Galium [6, 19]: 20; Plant response rating, Barnyardgrass [7, 20]: 0; Plant response rating, Barnyardgrass [7, 19]: 10; Plant response rating, Ragweed [8, 20]: 0; Plant response rating, Ragweed [8, 19]: 0; Plant response rating, Corn [9, 19]: 0; Plant response rating, Kochia [10, 20]: 0; Plant response rating, Kochia [10, 19]: 10; Plant response rating, Wheat [11, 19]: 0; Plant response rating, Foxtail, Giant [12, 20]: 0; Plant response rating, Foxtail, Giant [12, 19]: 0; Plant response rating, Pigweed [13, 20]: 0; Plant response rating, Pigweed [13, 19]: 10; Plant response rating, Ryegrass, Italian [14, 20]: 0; Plant response rating, Ryegrass, Italian [14, 19]: 0
Fc1cccc(Oc2ncc(Cl)cn2)c1-c1cn(CC(F)(F)F)cn1 [Compound 217]	20	0	40	0	0	10	0	0	10	0	0	10	0	0	0	0	10	10	0	0	Plant response rating, Blackgrass [5, 16]: 0; Plant response rating, Galium [6, 16]: 30; Plant response rating, Barnyardgrass [7, 16]: 0; Plant response rating, Barnyardgrass [7, 18]: 10; Plant response rating, Ragweed [8, 16]: 30; Plant response rating, Ragweed [8, 18]: 0; Plant response rating, Corn [9, 16]: 0; Plant response rating, Kochia [10, 16]: 30; Plant response rating, Kochia [10, 18]: 0; Plant response rating, Wheat [11, 16]: 0; Plant response rating, Foxtail, Giant [12, 16]: 0; Plant response rating, Foxtail, Giant [12, 18]: 30; Plant response rating, Pigweed [13, 16]: 60; Plant response rating, Pigweed [13, 18]: 70; Plant response rating, Ryegrass, Italian [14, 16]: 0; Plant response rating, Ryegrass, Italian [14, 18]: 10
CC(=O)c1cc(-c2ccccc2Oc2ncc(Cl)cn2)on1 [Compound 218]	0	0	0	0	0	10	0	50	0	0	0	0	0	0	0	60	40	90	0	0	Plant response rating, Blackgrass [5, 19]: 0; Plant response rating, Galium [6, 19]: 0; Plant response rating, Barnyardgrass [7, 20]: 0; Plant response rating, Barnyardgrass [7, 19]: 0; Plant response rating, Ragweed [8, 20]: 0; Plant response rating, Ragweed [8, 19]: 0; Plant response rating, Corn [9, 19]: 0; Plant response rating, Kochia [10, 20]: 0; Plant response rating, Kochia [10, 19]: 0; Plant response rating, Wheat [11, 19]: 0; Plant response rating, Foxtail, Giant [12, 20]: 0; Plant response rating, Foxtail, Giant [12, 19]: 0; Plant response rating, Pigweed [13, 20]: 0; Plant response rating, Pigweed [13, 19]: 0; Plant response rating, Ryegrass, Italian [14, 20]: 0; Plant response rating, Ryegrass, Italian [14, 19]: 0
COc1ccnc(-c2ccccc2Oc2ncc(Cl)cn2)c1 [Compound 219]	0	0	0	0	0	30	0	0	30	0	0	0	0	0	0	0	10	0	0	0	Plant response rating, Blackgrass [5, 19]: 0; Plant response rating, Galium [6, 19]: 20; Plant response rating, Barnyardgrass [7, 20]: 0; Plant response rating, Barnyardgrass [7, 19]: 0; Plant response rating, Ragweed [8, 20]: 0; Plant response rating, Ragweed [8, 19]: 20; Plant response rating, Corn [9, 19]: 0; Plant response rating, Kochia [10, 20]: 0; Plant response rating, Kochia [10, 19]: 0; Plant response rating, Wheat [11, 19]: 0; Plant response rating, Foxtail, Giant [12, 20]: 0; Plant response rating, Foxtail, Giant [12, 19]: 0; Plant response rating, Pigweed [13, 20]: 0; Plant response rating, Pigweed [13, 19]: 10; Plant response rating, Ryegrass, Italian [14, 20]: 0; Plant response rating, Ryegrass, Italian [14, 19]: 0
